Data on 4 molecules can be found in paper PMC10503797, “Allosteric modulator potentiates β2AR agonist–promoted bronchoprotection in asthma models” (The Journal of Clinical Investigation, 2023).

Data set [1] addresses WT murine β2AR (Mus musculus, UniProt P18762). In words: 125I-CYP radioligand competition binding, WT murine β2AR. The conditions noted are these: WT DMSO. A general note: Loss of bound radioactivity is the signal in a displacement assay; it reports binding, not function.
Method: (§3) Statistical analyses were performed using 1-way ANOVA, repeated (related) measures with Tukey’s posthoc test.
For data set [2], the target named is guinea pig β2AR (Cavia porcellus, UniProt Q8K4Z4). Put plainly: 125I-CYP radioligand competition binding, guinea pig β2AR. The settings on record: DMSO.
For data set [3], the target named is V133F mutant murine β2AR (Mus musculus, UniProt P18762, V133F). In words: 125I-CYP radioligand competition binding, V133F mutant murine β2AR. The settings on record: V133F DMSO.
Method: as §3
The test system of data set [4] is guinea pig lung slices. In words: Methacholine-induced airway constriction in guinea pig lung slices. The settings on record: for MCh-induced airway constriction response (Figure 5D): 10 µM Fenoterol + 25 µM Cmp6, Exp1-6. The format is cell-based. Also on record: key to MCh-induced airway constriction response (Figure 5D): % of initial (baseline) airway luminal area. The procedure: All curve fits were generated using the software program GraphPad Prism. Data are represented as mean ± SEM obtained from 6 guinea pigs.
(§1) Precision-cut lung slices were prepared as described previously ([61], [62]). A 3% solution of low melting-point agarose (Gerbu Biotechnik GmbH) in ultrapure water was prepared by heating it a microwave until fully dissolved. […] After filling, the lungs were covered with ice for 30 minutes to solidify the agarose for slicing. […] Lung slices were cut at a thickness of 500 μm and washed several times with slicing buffer to remove debris and washout the isoproterenol. Slices were incubated overnight in a 60 mm dish in sterile incubation buffer: MEM composed of lung slice buffer supplemented with 0.5 mM sodium pyruvate, 1 mM glutamine (Gibco), MEM-amino acids mixture (1:50), MEM-vitamins mixture (1:100; Gibco), and penicillin-streptomycin (1:100; Gibco), pH = 7.2, at 37°C in a CO2- and humidity-controlled atmosphere.
(§2) After washing the slices in medium, individual guinea pig lung slices were mechanically maintained with a Teflon ring with an inner diameter of 7 mm and covered with 1 mL of incubation buffer. […] Image acquisition software (NIS-Elements, Nikon) was used to quantify airway luminal area. Images of the airways were acquired every 2 seconds during the whole course of the experiment, starting 2 minutes before the addition of any agent to allow for baseline measurements of the airway caliber. For each methacholine or ovalbumin concentration, the maximal airway constriction was expressed as percentage of the initial (baseline) airway luminal area and plotted against that concentration.

Data set [5] concerns lung slices obtained from ovalbumin-sensitized guinea pigs. Put plainly: Ovalbumin-induced airway constriction in lung slices from ovalbumin-sensitized guinea pigs. Format: cell-based, guinea pig. The settings on record: ovalbumin-sensitized guinea pigs; no treatment.
Source text: All curve fits were generated using the software program GraphPad Prism. Data are represented as mean ± SEM of 4–5 guinea pigs (see Table 2 for statistical analyses).
Outbred, male, specified pathogen-free Dunkin Hartley guinea pigs (Charles River Laboratory) weighing 200 to 400 g were used. The animals were housed in pairs under a 12-hour light/dark cycle in a temperature- and humidity-controlled room with food and tap water ad libitum. For studies in the guinea pig model of allergic asthma, animals were actively IgE-sensitized to ovalbumin by injecting a suspension containing 100 μg/mL ovalbumin and 100 mg/mL Al(OH)3 in saline. Each animal was injected with 1.0 mL of suspension: 0.5 mL was injected i.p. and 0.5 mL was divided over 7 s.c. sites close to lymph nodes in the neck, paws, and lumbar regions ([24]). Animals were euthanized at least 4 weeks after sensitization.
as §1, §2

“And” between values parts separate entries of the source, which are not always exact repeats. Equal entries are not always repeated.

Chain of V133F mutant murine β2AR (P18762 whole entry V133F): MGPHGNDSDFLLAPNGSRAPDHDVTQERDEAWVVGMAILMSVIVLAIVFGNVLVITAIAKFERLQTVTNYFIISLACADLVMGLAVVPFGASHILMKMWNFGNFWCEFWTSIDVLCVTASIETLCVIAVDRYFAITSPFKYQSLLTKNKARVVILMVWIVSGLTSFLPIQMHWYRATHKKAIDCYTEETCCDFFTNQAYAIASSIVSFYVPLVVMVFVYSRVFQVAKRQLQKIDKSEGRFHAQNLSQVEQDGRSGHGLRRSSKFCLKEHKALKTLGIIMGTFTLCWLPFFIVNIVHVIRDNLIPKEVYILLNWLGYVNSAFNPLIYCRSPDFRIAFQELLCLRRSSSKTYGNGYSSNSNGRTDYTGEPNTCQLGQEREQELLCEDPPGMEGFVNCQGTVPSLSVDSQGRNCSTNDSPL
Chain of WT murine β2AR (P18762 whole entry): as the sequence (P18762 whole entry V133F) above, with F133V counted along it
Chain of guinea pig β2AR (Q8K4Z4 whole entry): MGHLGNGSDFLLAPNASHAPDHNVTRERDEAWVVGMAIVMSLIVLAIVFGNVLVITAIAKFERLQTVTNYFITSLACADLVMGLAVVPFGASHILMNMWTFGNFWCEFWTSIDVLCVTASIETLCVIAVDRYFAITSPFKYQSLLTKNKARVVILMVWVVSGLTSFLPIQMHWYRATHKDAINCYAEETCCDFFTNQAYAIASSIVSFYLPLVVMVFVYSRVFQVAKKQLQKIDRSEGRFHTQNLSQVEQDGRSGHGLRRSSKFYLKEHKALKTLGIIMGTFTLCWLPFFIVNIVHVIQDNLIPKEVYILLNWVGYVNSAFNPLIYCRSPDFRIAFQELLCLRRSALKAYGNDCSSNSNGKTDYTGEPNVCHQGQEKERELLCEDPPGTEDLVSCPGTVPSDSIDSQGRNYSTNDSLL

Take `CC(C)NCC(O)c1ccc(O)c(O)c1` (stereo not shown) [ISO, isoproterenol, reference compound]: the “125I-CYP binding (% of maximal)” value in data set [1] (log[ISO] -4 M) was -0.1438% and -0.4111% and -0.227% and -0.3498%; in data set [1] (log[ISO] -4.49485 M), 2.592% and 1.529% and 1.507% and 1.987%; in data set [1] (log[ISO] -5.09691 M), 7.083% and 4.639% and 5.507% and 5.149%; in data set [1] (log[ISO] -5.69897 M), 19.715% and 17.6774% and 15.359% and 15.8985%; in data set [1] (log[ISO] -6.30103 M) it was 44.1973% and 39.2701% and 36.5787% and 38.852%; in data set [1] (log[ISO] -6.90309 M), 69.5556% and 67.7036% and 62.3553% and 65.7463%. In addition, the “125I-CYP binding (% of maximal)” value was 90.4216% and 85.9767% and 84.6762% and 89.3527% in data set [1] (log[ISO] -7.50515 M); 98.0111% and 97.6178% and 94.6894% and 94.0001% in data set [1] (log[ISO] -8.10721 M); 99.06% and 99.1113% and 98.9767% and 100.68% in data set [1] (log[ISO] -8.70927 M); 98.5309% and 100.484% and 102.846% and 102.836% in data set [1] (log[ISO] -9.31133 M); 103.967% and 101.665% and 101.826% and 99.0182% in data set [1] (log[ISO] -9.91339 M); -0.1642% and -0.422% and -0.2235% and 0.05522% in data set [3] (log[ISO] -4 M). The “125I-CYP binding (% of maximal)” value was 1.355% and 1.539% and 1.229% and 0.6906% in data set [3] (log[ISO] -4.49485 M); 4.785% and 4.497% and 3.5069% and 4.749% in data set [3] (log[ISO] -5.09691 M); 14.8509% and 14.5905% and 12.5433% and 13.7771% in data set [3] (log[ISO] -5.69897 M); 36.9962% and 34.2695% and 32.8754% and 34.2526% in data set [3] (log[ISO] -6.30103 M); 66.198% and 62.9489% and 57.7767% and 62.1859% in data set [3] (log[ISO] -6.90309 M); 86.6591% and 87.6539% and 79.9524% and 86.2876% in data set [3] (log[ISO] -7.50515 M). The “125I-CYP binding (% of maximal)” value in data set [3] (log[ISO] -8.10721 M) is 96.9071% and 95.4546% and 94.0497% and 96.919%; in data set [3] (log[ISO] -8.70927 M), 99.4994% and 99.6962% and 98.92% and 100.879%; in data set [3] (log[ISO] -9.31133 M) it was 99.9887% and 99.7215% and 100.53% and 99.951%; in data set [3] (log[ISO] -9.91339 M), 102.257% and 101.759% and 102.441% and 98.1746%. Further, the “125I-CYP binding, ISO competition curve (Figure 4B)” value in data set [2] (Log [ISO] (M) -4.49485) is 1.551 and 1.783 and 2.036 and 2.11 and 1.706; in data set [2] (Log [ISO] (M) -5.09691), 4.5383 and 7.032 and 7.563 and 7.078 and 5.303; in data set [2] (Log [ISO] (M) -5.69897), 13.7083 and 20.96 and 21.5014 and 20.9933 and 15.5868; in data set [2] (Log [ISO] (M) -6.90309) it was 63.0711 and 57.4939 and 78.0004 and 74.7226 and 70.0255; in data set [2] (Log [ISO] (M) -7.50515), 85.6262 and 93.2237 and 94.6971 and 93.7843 and 89.3743; in data set [2] (Log [ISO] (M) -8.10721), 99.3825 and 97.8919 and 98.1464 and 96.8121 and 98.8078. For the same molecule, the “125I-CYP binding, ISO competition curve (Figure 4B)” value in data set [2] (Log [ISO] (M) -8.70927) is 98.4434 and 97.4234 and 99.4183 and 101.041 and 99.2113; in data set [2] (Log [ISO] (M) -9.31133), 100.682 and 98.3967 and 100.968 and 99.8594 and 99.9768; in data set [2] (Log [ISO] (M) -9.91339), 97.8042 and 98.3188 and 100.175 and 101.941 and 100.458.
On to `COc1ccc(Sc2ccc(S(=O)(=O)N(C)C(C)C)cc2C(=O)N[C@H](CC(N)=O)Cc2ccc(C(C)(C)C)cc2)cc1` [Cmp6], for which the “MCh-induced airway constriction response (Figure 5D)” value in data set [4] (-Log [MCh] 6.5) was 84.9 and 96.3 and 94.4 and 89.0 and 84.3; in data set [4] (-Log [MCh] 7) it was 103.8 and 101.2 and 95.0 and 101.0 and 99.7; in data set [4] (-Log [MCh] 7.5), 104.7 and 102.5 and 101.8 and 96.6 and 103.6 and 102.8; in data set [4] (-Log [MCh] 8) it was 105.1 and 102.7 and 102.2 and 96.3 and 103.7 and 102.1.
Take `CC(=O)OC(C)C[N+](C)(C)C` (stereo not shown) [Methacholine, methacholine]: the EC50 in data set [4] (Cavia porcellus, naive guinea pigs, no treatment, read-out: EC50 of airway constriction) is 250 ± 60 nM.

B1: Ovalbumin: the allergen used in IgE-sensitized guinea pigs (protein, UniProt P01012 2-386, looked up)
Ovalbumin: GSIGAASMEFCFDVFKELKVHHANENIFYCPIAIMSALAMVYLGAKDSTRTQINKVVRFDKLPGFGDSIEAQCGTSVNVHSSLRDILNQITKPNDVYSFSLASRLYAEERYPILPEYLQCVKELYRGGLEPINFQTAADQARELINSWVESQTNGIIRNVLQPSSVDSQTAMVLVNAIVFKGLWEKAFKDEDTQAMPFRVTEQESKPVQMMYQIGLFRVASMASEKMKILELPFASGTMSMLVLLPDEVSGLEQLESIINFEKLTEWTSSNVMEERKIKVYLPRMKMEEKYNLTSVLMAMGITDVFSSSANLSGISSAESLKISQAVHAAHAEINEAGREVVGSAEAGVDAASVSEEFRADHPFLFCIKHIATNAVLFFGRCVSP
For the molecule B1, in data set [5], the “EC50 of airway constriction” value was 8.0 ± 2.4 ng/mL.

Broadly, the EC50 is the concentration needed to bring the measured effect to its halfway point.
